What was measured:
[1] = tested on: DU-145; assay: Antiproliferative activity against human DU145 cells at 50 uM after 3 days by fluorescence assay; type: functional; settings: DU-145, 72 h, read-out: GI
[2] = tested on: DU-145; assay: Antiproliferative activity against human DU145 cells after 3 days by fluorescence assay; type: functional; settings: DU-145, 72 h
[3] = molecular target: Tubulin; assay: Displacement of [3H]-colchicine from tubulin (unknown origin) after 10 mins by turbidimetrically; type: protein-complex assay, Homo sapiens
[4] = tested on: K562; assay: Induction of mitotic arrest in human K562 cells assessed as growth inhibition by light microscopy; type: functional, cell-based
[5] = tested on: K562; assay: Induction of mitotic arrest in human K562 cells assessed as mitotic indices at 5 uM by light microscopy; type: functional

Compound | GI50 [2] | inhibition of growth at 50 µM [1] | also measured
C#CCNC(=O)N1CCC(c2nc(-c3ccc(F)cc3)no2)CC1 |  | < 20% | 
O=C(NCc1ccsc1)N1CCC(c2nc(Cc3ccccc3)no2)C1 (centres undefined) | 6500 nM |  | 
O=C(NCc1ccccc1)N1CCC(c2nc(CCN3CCc4ccccc4C3)no2)CC1 | 8600 nM |  | 
O=C(NCC1CC1)N1CCC(c2nc(-c3ccc(F)cc3)no2)CC1 |  | < 20% | 
CC(C)Cc1noc(C2CCN(C(=O)NCc3ccccc3)CC2)n1 |  | < 20% | 
O=C(N1CCOCC1)N1CCC(c2nc(-c3ccc(F)cc3)no2)CC1 |  | < 20% | 
O=C(NCc1ccccc1)N1CCC(c2nc(COc3ccccc3)no2)CC1 | 520 nM |  | 
O=C(N1CCC(c2nc(-c3ccc(F)cc3)no2)CC1)N1CCc2ccccc21 |  | < 20% | 
O=C(N1CCC(c2nc(-c3ccc(F)cc3)no2)CC1)N1CCc2ccccc2C1 | 21000 nM |  | 
O=C(NCc1ccccc1)N1CCC(c2nc(CCN3CCOCC3)no2)CC1 | 11200 nM |  | 
O=C(NCc1ccsc1)N1CCCC(c2nc(Cc3ccccc3)no2)C1 (centres undefined) |  | < 20% | 
Cc1ccccc1-c1noc(C2CCN(C(=O)NCc3ccccc3)CC2)n1 | 12300 nM |  | 
O=C(N1CCCCC1)N1CCC(c2nc(-c3ccc(F)cc3)no2)CC1 |  | < 20% | 
CCCCNC(=O)N1CCC(c2nc(-c3ccc(F)cc3)no2)CC1 |  | < 20% | 
O=C(NCc1ccsc1)N1CCCC1c1nc(Cc2ccccc2)no1 (centres undefined) |  | < 20% | 
Cc1cc(CNC(=O)N2CCC(c3nc(Cc4ccccc4)no3)CC2)nn1C | 950 nM |  | 
Cc1noc(C2CCN(C(=O)NCc3ccccc3)CC2)n1 |  | < 20% | 
O=C(N1CCC(c2nc(-c3ccc(F)cc3)no2)CC1)N1CCCc2ccccc21 |  | < 20% | 
O=C(NCc1ccsc1)N1CCCCC1c1nc(Cc2ccccc2)no1 (centres undefined) |  | < 20% | 
Cc1cc(CNC(=O)N2CCC(c3nc(COc4ccccc4)no3)CC2)nn1C | 2800 nM |  | 
COc1cccc(NC(=O)N2CCC(c3nc(-c4ccc(Cl)cc4)no3)CC2)c1 | 9500 nM |  | IC50 [3]: 5300 nM
CC(C)(C)NC(=O)N1CCC(c2nc(-c3ccc(F)cc3)no2)CC1 |  | < 20% | 
O=C(NCc1ccccc1)N1CCC(c2nc(Cc3ccccc3)no2)CC1 | 760 nM |  | 
COCCNC(=O)N1CCC(c2nc(-c3ccc(F)cc3)no2)CC1 |  | < 20% | 
COc1cc(OC)cc(-c2noc(C3CCN(C(=O)NCc4ccccc4)CC3)n2)c1 | 4400 nM |  | 
COC(=O)CNC(=O)N1CCC(c2nc(-c3ccc(F)cc3)no2)CC1 |  | < 20% | 

More lines, main results first:

GI50 [2] | Compound | inhibition of growth at 50 µM [1] | also measured
1900 nM | O=C(NCc1ccccc1)N1CCC(c2nc(-c3ccccc3)no2)CC1 |  | IC50 [3]: 1800 nM; IC50 [4]: 1500 nM; Activity [5]: 75%
650 nM | O=C(NCc1ccsc1)N1CCC(c2nc(-c3ccc(F)cc3)no2)CC1 |  | 
1100 nM | O=C(NCc1ccoc1)N1CCC(c2nc(-c3ccc(F)cc3)no2)CC1 |  | 
1200 nM | Cc1cccc(-c2noc(C3CCN(C(=O)NCc4ccccc4)CC3)n2)c1 |  | 
2700 nM | O=C(NCc1ccco1)N1CCC(c2nc(-c3ccc(Cl)cc3)no2)CC1 |  | IC50 [3]: 2000 nM
940 nM | Cc1cc(CNC(=O)N2CCC(c3nc(-c4ccc(F)cc4)no3)CC2)nn1C |  | 
1300 nM | O=C(NCc1ccc2c(c1)OCO2)N1CCC(c2nc(-c3ccc(F)cc3)no2)CC1 |  | 
2800 nM | O=C(NCc1ccccc1)N1CCC(c2nc(-c3ccc(F)cc3)no2)CC1 |  | IC50 [3]: 1600 nM; IC50 [4]: 1200 nM; Activity [5]: 72%
3300 nM | O=C(NCc1ccco1)N1CCC(c2nc(-c3ccc(F)cc3)no2)CC1 |  | 
120 nM | O=C(NCc1ccsc1)N1CCC(c2nc(Cc3ccccc3)no2)CC1 |  | 
6000 nM | O=C(NCc1ccco1)N1CCC(c2nc(-c3ccccc3)no2)CC1 |  | 
2900 nM | O=C(NCc1ccccc1)N1CCC(c2nc(-c3ccc(F)cc3Cl)no2)CC1 |  | 
17000 nM | CN(Cc1ccco1)C(=O)N1CCC(c2nc(-c3ccc(F)cc3)no2)CC1 |  | 
1700 nM | O=C(NCc1cccs1)N1CCC(c2nc(-c3ccc(F)cc3)no2)CC1 |  | 
1600 nM | Cc1ccc(-c2noc(C3CCN(C(=O)NCc4ccccc4)CC3)n2)cc1 |  | IC50 [3]: 1100 nM; IC50 [4]: 550 nM; Activity [5]: 83%
2200 nM | Cc1ccc(-c2noc(C3CCN(C(=O)NCc4ccco4)CC3)n2)cc1 |  | IC50 [3]: 2300 nM
1700 nM | O=C(NCc1ccsc1)N1CCC(c2nc(COc3ccccc3)no2)CC1 |  | 
13600 nM | O=C(NCCc1ccccc1)N1CCC(c2nc(-c3ccc(F)cc3)no2)CC1 |  | 
9300 nM | O=C(NCc1ccccc1)N1CCC(c2nc(-c3ccccc3Cl)no2)CC1 |  | IC50 [3]: 2600 nM
9800 nM | O=C(NCCc1c[nH]c2ccccc12)N1CCC(c2nc(-c3ccc(F)cc3)no2)CC1 |  | 
